{"source": "patent US12156533B2", "about": "“Nicotine salt formulations for aerosol devices and methods thereof” (JUUL Labs, Inc., priority 2013, dated 2024)", "conditions": "nicotine:tartaric acid 1:2 molar ratio; in PG, VG or any mixture of PG and VG at ambient conditions", "text": "As used herein, weight percentage (w/w) refers to the weight of the individual component over the weight of the total formulation.", "data": [{"smiles": "CN1CCCC1c1cccnc1.O=C(O)C(O)C(O)C(=O)O", "note": "(stereo not shown) [nicotine bitartrate]", "values": [{"measurement": "concentration at which no solution is produced", "value": "≥ 0.5 % (w/w) nicotine"}]}]}
